Like-named read-outs stand apart in the source and are kept apart here. Starred links: 1 amine or outer side, 2 acyl side, 3 side chain; linkers in the order of their positions; H or OH if unused. Positions of bridges follow the written chain, without caps; N, C: chain ends. Non-standard residues stand in square brackets, D forms with d. Residues, ends and D or L forms follow the SMILES beside them. hCys = N[C@@H](CCS)C(=O)O; Orn = NCCC[C@H](N)C(=O)O; Dab = NCC[C@H](N)C(=O)O; X1 = O=C(C[*:2])[*:1]; X2 = O=C(C[*:1])[*:2]
Key:
[1] = Evaluation of molecule stability (alkali treatment, residual rate by LC/MS); assay type: physicochemical; conditions: for Stability (molecule stability, residual rate of the cyclic peptide rank): alkali treatment, residual rate by LC/MS
Experimental: The molecule stability of the cyclic peptide was evaluated by analyzing the alkali-treated cyclic peptide aqueous solution by liquid chromatography mass spectroscopy (LC/MS).
The alkali treatment was carried out by the following method. A 500 μM cyclic peptide aqueous solution was prepared, an equivalent of 1 M sodium hydroxide aqueous solution was added to this aqueous solution, and the resultant mixture was incubated at 15° C. for 3 hours to obtain an alkali-treated cyclic peptide aqueous solution. The cyclic peptide residual rate was calculated by setting the total area of all peaks of the cyclic peptide before alkali treatment in LC/MS to 100% and determining the proportion of the total area of all peaks in LC/MS of the alkali-treated cyclic peptide aqueous solution, and the molecule stability was evaluated according to the following evaluation standards. It is preferable that the evaluation result satisfies the evaluation standard A, B, or C.
The conditions of the LC/MS used for the evaluation of molecule stability were set as follows. • LC apparatus: Prominence series (pump, column oven, autosampler, detector) (manufactured by Shimadzu Corporation) • MS detector: LC/MS2010EV (manufactured by Shimadzu Corporation) • Column: Cadenza CD-C18, inner diameter 2.0 mm×length 250 mm, particle size: 3 μm (manufactured by Imtakt Corporation) • Eluent A: a solution (pH 3) containing 10 mM ammonium formate as a solute, where the solvent is 100% water. • Eluent B: a solution (pH 3) containing 10 mM ammonium formate as a solute, where the solvent is acetonitrile/water=90/10. • Flow rate: 0.2 mL/min • Injection volume: 4 μL • Gradient: 0% to 30%: Eluent B (0 to 30 minutes), 100%: Eluent B (30 to 40 minutes), 0%: Eluent B (40 to 60 minutes) • Column temperature: 45° C. • Ionization method: electrospray ionization (ESI) positive, ESI negative

[2] = molecular target: human integrin αvβ5 (Homo sapiens, UniProt P06756+P18084); assay: Evaluation of integrin binding property (surface plasmon resonance, Biacore 3000, immobilized cyclic peptide)
Chain of human integrin αvβ5 (P06756 31-1048): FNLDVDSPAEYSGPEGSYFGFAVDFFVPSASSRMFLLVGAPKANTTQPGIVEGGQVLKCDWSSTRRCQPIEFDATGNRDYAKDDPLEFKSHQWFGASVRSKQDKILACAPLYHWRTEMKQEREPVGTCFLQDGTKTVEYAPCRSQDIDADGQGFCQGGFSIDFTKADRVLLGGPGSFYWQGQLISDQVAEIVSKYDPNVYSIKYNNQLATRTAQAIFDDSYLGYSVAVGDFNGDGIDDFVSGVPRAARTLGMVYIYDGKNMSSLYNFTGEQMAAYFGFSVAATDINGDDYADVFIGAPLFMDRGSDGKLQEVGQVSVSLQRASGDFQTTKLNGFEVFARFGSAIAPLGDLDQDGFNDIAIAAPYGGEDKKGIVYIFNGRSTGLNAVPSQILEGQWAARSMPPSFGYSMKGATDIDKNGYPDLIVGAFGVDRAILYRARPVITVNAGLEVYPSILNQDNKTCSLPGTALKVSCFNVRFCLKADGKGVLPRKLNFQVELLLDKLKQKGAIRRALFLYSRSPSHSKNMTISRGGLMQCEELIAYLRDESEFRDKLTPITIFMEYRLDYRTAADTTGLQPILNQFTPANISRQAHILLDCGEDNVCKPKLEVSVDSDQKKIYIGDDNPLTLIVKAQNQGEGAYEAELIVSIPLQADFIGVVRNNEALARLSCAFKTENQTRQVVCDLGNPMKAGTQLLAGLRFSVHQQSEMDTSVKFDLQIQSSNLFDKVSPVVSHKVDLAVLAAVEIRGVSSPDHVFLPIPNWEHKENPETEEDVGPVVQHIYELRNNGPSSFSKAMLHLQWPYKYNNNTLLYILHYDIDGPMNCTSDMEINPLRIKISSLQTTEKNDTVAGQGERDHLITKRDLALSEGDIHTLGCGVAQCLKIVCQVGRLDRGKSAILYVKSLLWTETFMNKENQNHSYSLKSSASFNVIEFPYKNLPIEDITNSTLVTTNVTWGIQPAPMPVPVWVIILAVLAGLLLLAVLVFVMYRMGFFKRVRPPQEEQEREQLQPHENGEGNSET
Chain of human integrin αvβ5 (P18084 24-799): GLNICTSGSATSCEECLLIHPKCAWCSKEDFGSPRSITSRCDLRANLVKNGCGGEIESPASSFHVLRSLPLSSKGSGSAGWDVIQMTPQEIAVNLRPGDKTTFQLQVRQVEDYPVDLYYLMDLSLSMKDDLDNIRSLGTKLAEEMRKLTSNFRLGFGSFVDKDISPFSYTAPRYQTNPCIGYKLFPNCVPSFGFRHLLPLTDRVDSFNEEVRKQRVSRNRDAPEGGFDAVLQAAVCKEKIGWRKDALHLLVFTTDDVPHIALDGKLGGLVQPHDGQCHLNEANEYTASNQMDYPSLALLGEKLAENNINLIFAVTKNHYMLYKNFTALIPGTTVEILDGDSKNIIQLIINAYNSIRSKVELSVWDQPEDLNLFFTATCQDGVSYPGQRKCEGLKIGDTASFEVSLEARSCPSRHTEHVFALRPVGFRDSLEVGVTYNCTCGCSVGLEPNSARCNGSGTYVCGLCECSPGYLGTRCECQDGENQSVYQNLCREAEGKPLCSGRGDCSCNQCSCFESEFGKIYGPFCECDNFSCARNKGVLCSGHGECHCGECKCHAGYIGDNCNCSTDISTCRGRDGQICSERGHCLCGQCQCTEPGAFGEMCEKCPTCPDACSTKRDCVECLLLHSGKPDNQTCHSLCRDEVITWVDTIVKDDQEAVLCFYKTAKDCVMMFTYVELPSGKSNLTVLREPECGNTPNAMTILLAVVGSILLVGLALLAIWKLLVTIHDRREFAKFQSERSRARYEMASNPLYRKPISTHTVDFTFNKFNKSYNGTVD
Experimental: A commercially available CMS (a carboxymethyl dextran introduction type, manufactured by GE Healthcare) sensor chip was set in Biacore 3000, which is a surface plasmon resonance apparatus manufactured by GE Healthcare, the sensor was stabilized at a flow rate of 10 μL/min of a HEPES (4-(2-hydroxyethyl)-1-piperazineethanesulfonic acid) buffer solution (20 mM HEPES-HCl, 150 mM NaCl, pH 7.4) for surface plasmon resonance (SPR), and 70 μL of a mixed aqueous solution of 0.2 M 1-(3-dimethylaminopropyl)-3-ethylcarbodiimide (EDC) and 0.04 M N-hydroxysuccinimide (NHS) was added thereto. Here, the concentration unit M represents mol/L, and the same applies hereinafter. Then, 20 μL of the sample solution of each of the above cyclic peptides diluted to 0.2 g/L with the HEPES buffer solution was supplied to the sensor chip, blocking treatment was subsequently carried out with an ethanolamine solution, and washing was carried out with a sodium hydroxide aqueous solution, whereby immobilization was carried out. However, only for the cyclic peptides 125, 126, and 127, in which the number of lysine residues having an amino group as the immobilizing functional group was zero, the amount of the sample solution to be supplied to the sensor chip was set to 500 μL instead of 20 μL. Further, 70 μL of the mixed aqueous solution of 0.2 M EDC and 0.04 M NHS was added to another flow channel of the same sensor chip without immobilizing the sample, and then blocking treatment and washing treatment were carried out. Hereinafter, the obtained immobilization-treated sensor chip is referred to as an “immobilization-treated sensor chip A”.
After adding human integrin αvβ5 for 10 minutes at 25° C., which was diluted to 30 nM using a HEPES buffer solution to which magnesium chloride was added to 5 mM, in each flow channel of the immobilization-treated sensor chip A prepared in (1) above, the same HEPES buffer solution (containing 5 mM magnesium chloride) was allowed to flow as a running buffer for 30 minutes, and measurement was carried out with Biacore 3000. Then, a regeneration treatment of removing human integrin αvβ5 was carried out by allowing a 0.5 M EDTA aqueous solution to flow through each flow channel for 10 minutes. Further, the above-described measurement process consisting of adding integrin for 10 minutes, allowing a running buffer to flow for 30 minutes, carrying out measurement with Biacore 3000, and carrying out regeneration treatment with 0.5 M EDTA aqueous solution was carried out in the same manner for 100 nM human integrin αvβ5, 300 nM human integrin αvβ5, and 1,000 nM human integrin αvβ5. Dissociation constant between the cyclic peptide and human integrin αvβ5 was calculated from the difference between the value measured by Biacore 3000 in the flow channel immobilized with the cyclic peptide and the value measured by Biacore 3000 in the flow channel unimmobilized with the cyclic peptide, in a case where each concentration of human integrin αvβ5 was allowed to flow, and the integrin binding property was evaluated according to the following evaluation standards. It is preferable that the evaluation result satisfies the evaluation standard A, B, or C.

[3] = surface plasmon resonance, immobilized cyclic peptide, human integrin αvβ5, read-out: Binding activity (integrin binding property, dissociation constant rank)

Row | Compound | Stability (molecule stability, residual rate of the cyclic peptide rank) [1] | Kd [2, 3] [nM] | Performance evaluation: Stability (residual rate of cyclic peptide after alkali treatment) ([1]; 500 μM peptide aqueous solution plus equivalent of 1 M sodium hydroxide, 15° C., 3 hours, LC/MS peak area) | Kd ([2]; SPR, 25° C., HEPES buffer with 5 mM magnesium chloride, integrin 30-1,000 nM, read-out: Performance evaluation: Binding activity (dissociation constant between the cyclic peptide and human integrin αvβ5)) [nM]
1 | CC[C@H](C)[C@@H]1NC(=O)[C@@H](NC(=O)CNC(=O)[C@H](CCCCN)NC(=O)[C@H](CCCCN)NC(=O)[C@@H](N)CCCCN)CCCCNC(=O)CSC[C@@H](C(=O)N[C@@H](C)C(=O)O)NC(=O)[C@H](CCCNC(=N)N)NC(=O)[C@H](Cc2ccccc2)NC(=O)[C@H]([C@@H](C)O)NC(=O)[C@H](CC(=O)O)NC(=O)CNC(=O)[C@H](CCCNC(=N)N)NC(=O)[C@@H]2CCCN2C1=O [Cyclic peptide 140, KKKG(Lys(acetyl))IPRGDTFR(C)A] (H-KKKGKIPRGDTFRCA-OH; linker 5-14 via X1) | C (The residual rate of the cyclic peptide is 30% or more and less than 50%.) | 50 to 100 |  | 
2 | CC(C)[C@@H]1NC(=O)[C@@H](NC(=O)[C@H](CCCCN)NC(=O)[C@H](CCCCN)NC(=O)[C@@H](N)CCCCN)CCSCC(=O)NCC[C@@H](C(=O)N[C@@H](C)C(=O)O)NC(=O)[C@H](CCCNC(=N)N)NC(=O)[C@H](Cc2ccccc2)NC(=O)[C@H](CC(N)=O)NC(=O)[C@H](CC(=O)O)NC(=O)CNC(=O)[C@H](CCCNC(=N)N)NC(=O)[C@@H]2CCCN2C1=O [Cyclic peptide 21, KKK-(Hcy)-VPRGDNFR(Dab(acetyl))A] (H-KKK[hCys]VPRGDNFR[Dab]A-OH; linker 4-13 via X2) |  |  | A (The residual rate of the cyclic peptide is 70% or more.) | < 50
3 | C[C@@H]1NC(=O)[C@H](Cc2ccccc2)NC(=O)[C@H]([C@@H](C)O)NC(=O)[C@H](CC(=O)O)NC(=O)CNC(=O)[C@H](CCCNC(=N)N)NC(=O)[C@@H]2CCCN2C(=O)[C@H]([C@@H](C)O)NC(=O)[C@@H](NC(=O)[C@H](CCCCN)NC(=O)[C@H](CCCCN)NC(=O)[C@@H](N)CCCCN)CCSCC(=O)NCC[C@@H](C(=O)O)NC1=O [Cyclic peptide 147, KKK-(Hcy)-TPRGDTFA(Dab(acetyl))] (H-KKK[hCys]TPRGDTFA[Dab]-OH; linker 4-13 via X2) | A (The residual rate of the cyclic peptide is 70% or more.) | < 50 |  | 
4 | CC[C@H](C)[C@@H]1NC(=O)[C@@H](NC(=O)CNC(=O)[C@H](CCCCN)NC(=O)[C@H](CCCCN)NC(=O)[C@@H](N)CCCCN)CCCCNC(=O)CSCC[C@@H](C(=O)N[C@@H](C)C(=O)O)NC(=O)[C@H](CCCNC(=N)N)NC(=O)[C@H](Cc2ccccc2)NC(=O)[C@H]([C@@H](C)O)NC(=O)[C@H](CC(=O)O)NC(=O)CNC(=O)[C@H](CCCNC(=N)N)NC(=O)[C@@H]2CCCN2C1=O [Cyclic peptide 120, KKKG(Lys(acetyl))IPRGDTFR-(Hcy)-A] (H-KKKGKIPRGDTFR[hCys]A-OH; linker 5-14 via X1) | A (The residual rate of the cyclic peptide is 70% or more.) | 50 to 100 |  | 
5 | C[C@@H]1NC(=O)[C@H](Cc2ccccc2)NC(=O)[C@H]([C@@H](C)O)NC(=O)[C@H](CC(=O)O)NC(=O)CNC(=O)[C@H](CCCNC(=N)N)NC(=O)[C@H]([C@@H](C)O)NC(=O)[C@H]([C@@H](C)O)NC(=O)[C@@H](NC(=O)[C@H](CCCCN)NC(=O)[C@H](CCCCN)NC(=O)[C@@H](N)CCCCN)CCSCC(=O)NCC[C@@H](C(=O)O)NC1=O [Cyclic peptide 155, KKK-(Hcy)-TTRGDTFA(Dab(acetyl))] (H-KKK[hCys]TTRGDTFA[Dab]-OH; linker 4-13 via X2) | A (The residual rate of the cyclic peptide is 70% or more.) | < 50 |  | 
6 | CC[C@H](C)[C@@H]1NC(=O)[C@@H](NC(=O)CNC(=O)[C@H](CCCCN)NC(=O)[C@H](CCCCN)NC(=O)[C@@H](N)CCCCN)CCCNC(=O)CSC[C@@H](C(=O)N[C@@H](C)C(=O)O)NC(=O)[C@H](CCCNC(=N)N)NC(=O)[C@H](Cc2ccccc2)NC(=O)[C@H]([C@@H](C)O)NC(=O)[C@H](CC(=O)O)NC(=O)CNC(=O)[C@H](CCCNC(=N)N)NC(=O)[C@@H]2CCCN2C1=O [Cyclic peptide 139, KKKG(Orn(acetyl))IPRGDTFR(C)A] (H-KKKG[Orn]IPRGDTFRCA-OH; linker 5-14 via X1) | C (The residual rate of the cyclic peptide is 30% or more and less than 50%.) | < 50 |  | 
